Measured values reported in article PMC4186417 (Pharmacology Research & Perspectives, 2014).
pEC50: −log10 of the molar value.

Target: T1, EP1 receptor (Mus musculus, UniProt P35375)
T1 sequence (P35375 1-405): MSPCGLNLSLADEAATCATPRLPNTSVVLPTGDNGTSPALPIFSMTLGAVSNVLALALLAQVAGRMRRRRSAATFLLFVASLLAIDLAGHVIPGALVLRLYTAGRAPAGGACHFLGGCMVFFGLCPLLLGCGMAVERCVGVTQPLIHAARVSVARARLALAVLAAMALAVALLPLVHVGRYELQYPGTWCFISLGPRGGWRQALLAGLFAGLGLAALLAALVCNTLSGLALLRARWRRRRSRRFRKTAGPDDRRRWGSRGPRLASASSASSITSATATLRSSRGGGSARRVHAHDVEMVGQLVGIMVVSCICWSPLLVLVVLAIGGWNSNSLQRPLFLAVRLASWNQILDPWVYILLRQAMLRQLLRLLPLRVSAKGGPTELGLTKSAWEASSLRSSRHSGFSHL
Assay: Fura-2 intracellular Ca2+ dose-response in EP1-HEK cells
Assay type: cell-based

SMILES: CCCCC[C@H](O)/C=C/[C@H]1[C@H](O)CC(=O)[C@@H]1C/C=C\CCCC(=O)O [PGE2]
- pEC50: 7.89
